The subject of assay [1] is SARS-CoV-2. The experiment in a line: Antiviral activity against SARS-CoV-2 infected in human Calu-3 cells assessed as reduction in progeny virus yeild preincubated with cell culture for 1 hr and further infected with virus for 1 hr followed by replacement of medium containing compound measured after 2 days by qRT-PCR analysis. In kind it is functional, organism-based. The note with it: Severe acute respiratory syndrome coronavirus 2, Calu-3. Background: In qPCR the cycle at which signal appears reflects the starting amount.

Assay [2] has as its system SARS-CoV-2. The experiment in a line: Antiviral activity against SARS-CoV-2 infected in African green monkey Vero cells assessed as reduction in progeny virus yeild preincubated with cell culture for 1 hr and further infected with virus for 1 hr followed by replacement of medium containing compound measured after 2 days by qRT-PCR analysis. In kind it is functional, organism-based. The note with it: Severe acute respiratory syndrome coronavirus 2, Vero.

Structures are written as SMILES.

As to `O=c1cc(-c2ccccc2)oc2cc(O)c(O)c(O)c12` [BAICALEIN], the concentration giving a half-maximal response (EC50) (commonly the concentration at which the effect is half-maximal) in the assay on SARS-CoV-2 [1] came out at 1.2 µM. With `O=C(O)[C@H]1O[C@@H](Oc2cc3oc(-c4ccccc4)cc(=O)c3c(O)c2O)[C@H](O)[C@@H](O)[C@@H]1O` [BAICALIN], in the assay with SARS-CoV-2 [2], the concentration for a half-maximal effect (EC50) was 9 µM.
